# Source: US4587333A, “Cephalosporins and their production” (Takeda Chemical Industries, Ltd., priority 1983, dated 1986)
# Key:
# [1] = tested on: Escherichia coli NIHJ JC-2; assay: antimicrobial spectrum (minimal inhibitory concentration); assay type: cell-based; details: NIHJJC2, pH 7.0
# Source text: (§1) The antimicrobial spectra of the compound (I) are shown in Table 1. | *Culture medium: 17.5 g of Bacto antibiotic medium 3 (Difco), 5 g of | Bacto yeast extract (Difco), 20 g of Bacto agar (Difco), 1 l of distilled | water; pH 7.0 | The amount of inoculated microorganism: 1 loopful of about 10^6 /ml o | microorganism suspension.
# [2] = tested on: Proteus vulgalis IFO 3988; assay: as above; assay type: cell-based; details: pH 7.0
# Source text: as §1
# [3] = tested on: Brevibacterium thiogenitalis ATCC 19240; assay: as above; assay type: cell-based; details: Corynebacterium glutamicum, ATCC19240, pH 7.0
# Source text: as §1
# [4] = tested on: Staphylococcus aureus FDA 209P; assay: as above; assay type: cell-based; details: FDA209P, pH 7.0
# Source text: as §1
# [5] = tested on: Acinetobacter calcoaceticus IFO 12552; assay: as above; assay type: cell-based; details: IFO12552, pH 7.0
# Source text: as §1
# [6] = tested on: Klebsiella pneumoniae IFO 3317; assay: as above; assay type: cell-based; details: IFO3317, pH 7.0
# Source text: as §1
# [7] = tested on: Citrobacter freundii IFO 12681; assay: as above; assay type: cell-based; details: IFO12681, pH 7.0
# Source text: as §1
# [8] = tested on: Bacillus subtilis NIHJ PCI219; assay: as above; assay type: cell-based; details: NIHJPCI219, pH 7.0
# Source text: as §1
# [9] = tested on: Salmonella typhimurium IFO 12529; assay: as above; assay type: cell-based; details: Salmonella enterica, pH 7.0
# Source text: as §1
# [10] = tested on: Pseudomonas aeruginosa IFO 3080; assay: as above; assay type: cell-based; details: IFO3080, pH 7.0
# Source text: as §1
# [11] = tested on: Serratia marcescens IFO 12648; assay: as above; assay type: cell-based; details: IFO12648, pH 7.0
# Source text: as §1
# [12] = tested on: Bacillus megaterium IFO 12108; assay: as above; assay type: cell-based; details: Priestia megaterium, IFO12108, pH 7.0
# Source text: as §1
# [13] = tested on: Alcaligenes faecalis IFO 13111; assay: as above; assay type: cell-based; details: IFO13111, pH 7.0
# Source text: as §1
# [14] = stability in aqueous solution; assay type: physicochemical
# β-lactamase = assay: stability to β-lactamase (overall statement); assay type: biochemical; details: as seen from Table 3
# Source text: (§2) In the above Table 3, the stabilities against the β-lactamase produced by Escherichia coli TN 713 and β-lactamase produced by Klebsiella oxytoca TN 1719 are expressed on a numerical scale, whereby the stabilities of PCG against these are rated at 100. Also, the stabilities against the β-lactamase produced by Serratia marcescens and β-lactamase produced by Proteus vulgaris are expressed on a numerical scale, whereby the stabilities of CER against these are rated at 100.
# Escherichia coli 0-111 = assay: therapeutic effect to infectious disease of mice; assay type: in vivo; details: 0111; mice infected with Escherichia coli 0-111; subcutaneous (SC); TAN-547 hydrochloride(s)
# [15] = tested on: β-lactamase produced by Klebsiella oxytoca TN 1719; assay: stability to β-lactamase (relative ratio of hydrolysis rate); assay type: biochemical; details: PCG rated at 100
# Source text: as §2
# [16] = tested on: β-lactamase produced by Proteus vulgalis GN 4413; assay: as above; assay type: biochemical; details: CER rated at 100
# Source text: as §2
# [17] = tested on: β-lactamase produced by Serratia marcescens TN 81; assay: as above; assay type: biochemical; details: CER rated at 100
# Source text: as §2
# [18] = tested on: β-lactamase produced by Escherichia coli TN 713; assay: as above; assay type: biochemical; details: PCG rated at 100
# Source text: as §2
# solubility = assay type: physicochemical
# [19] = property of the substance (amphoteric); assay type: physicochemical; details: dihydrochloride is neutral
# [20] = acute toxicity, subcutaneous administration to mice; assay type: in vivo; details: subcutaneously, 1 g/kg
# [21] = dimethylsulfoxide, methanol, acetone, ethyl acetate
# [22] = water, aqueous acetone, aqueous alcohol
SMILES,MIC [1],MIC [2],MIC [3],MIC [4],MIC [5],MIC [6],MIC [7],MIC [8],MIC [9],MIC [10],MIC [11],MIC [12],MIC [13],Stability ([14]; acidic aqueous solution),Stability ([14]; basic aqueous solution),Stability ([14]; neutral aqueous solution),ED50 (Escherichia coli 0-111),Solubility (solubility; [21]),Solubility (solubility; [22]),Property of the substance [19],other results
CC(N)C(=O)NC(CCCNC(=N)N)C(O)CC(=O)OCC1=C(C(=O)O)N2C(=O)C(NC=O)(NC(=O)CCCC(N)C(=O)O)C2SC1 (stereo not shown) [TAN-547 A],25 µg/mL,50 µg/mL,6.25 µg/mL,> 50 µg/mL,1.56 µg/mL,50 µg/mL,50 µg/mL,12.5 µg/mL,50 µg/mL,> 50 µg/mL,50 µg/mL,12.5 µg/mL,6.25 µg/mL,Unstable,Unstable,slightly unstable,18.2 mg/kg,Hardly soluble,Easily soluble,Amphoteric substance,stability to β-lactamase (β-lactamase): remarkably stable; Relative ratio of hydrolysis rate [15]: < 0.01; Relative ratio of hydrolysis rate [16]: < 0.01; Relative ratio of hydrolysis rate [17]: < 0.01; Relative ratio of hydrolysis rate [18]: < 0.01
CC(N)C(=O)NC(C)C(=O)NC(CCCNC(=N)N)C(O)CC(=O)OCC1=C(C(=O)O)N2C(=O)C(NC=O)(NC(=O)CCCC(N)C(=O)O)C2SC1 (stereo not shown) [TAN-547 B],25 µg/mL,25 µg/mL,6.25 µg/mL,> 50 µg/mL,3.13 µg/mL,50 µg/mL,50 µg/mL,12.5 µg/mL,25 µg/mL,> 50 µg/mL,50 µg/mL,12.5 µg/mL,6.25 µg/mL,Unstable,Unstable,slightly unstable,17.2 mg/kg,Hardly soluble,Easily soluble,Amphoteric substance,stability to β-lactamase (β-lactamase): remarkably stable; Relative ratio of hydrolysis rate [15]: < 0.01; Relative ratio of hydrolysis rate [16]: < 0.01; Relative ratio of hydrolysis rate [17]: < 0.01; Relative ratio of hydrolysis rate [18]: < 0.01
CC(N)C(=O)NC(C)C(=O)NC(C)C(=O)NC(CCCNC(=N)N)C(O)CC(=O)OCC1=C(C(=O)O)N2C(=O)C(NC=O)(NC(=O)CCCC(N)C(=O)O)C2SC1 (stereo not shown) [TAN-547 C],25 µg/mL,50 µg/mL,12.5 µg/mL,> 50 µg/mL,6.25 µg/mL,50 µg/mL,50 µg/mL,12.5 µg/mL,25 µg/mL,> 50 µg/mL,50 µg/mL,12.5 µg/mL,12.5 µg/mL,Unstable,Unstable,slightly unstable,16.2 mg/kg,Hardly soluble,Easily soluble,Amphoteric substance,death [20]: no death was observed; stability to β-lactamase (β-lactamase): remarkably stable; Relative ratio of hydrolysis rate [15]: < 0.01; Relative ratio of hydrolysis rate [16]: < 0.01; Relative ratio of hydrolysis rate [17]: < 0.01; Relative ratio of hydrolysis rate [18]: < 0.01
CC(N)C(=O)NC(CCCNC(=N)N)C(O)CC(=O)OCC1=C(C(=O)O)N2C(=O)C(NC(=O)CCCC(N)C(=O)O)C2SC1 (stereo not shown) [TAN-547 D],50 µg/mL,50 µg/mL,1.56 µg/mL,25 µg/mL,50 µg/mL,100 µg/mL,> 100 µg/mL,0.78 µg/mL,50 µg/mL,> 100 µg/mL,> 100 µg/mL,0.78 µg/mL,12.5 µg/mL,Slightly unstable,Unstable,Slightly unstable,9.92 mg/kg,Hardly soluble,Easily soluble,Amphoteric substance,death [20]: no death was observed
